US20150322051A1, “Macrocyclic picolinamides as fungicides” (Dow AgroSciences LLC, priority 2014, published 2015)
Read-outs that look alike come from different tables or passages of the source.

How the values were obtained:
[1] = test system: Mycosphaerella graminicola; anamorph: Septoria tritici (SEPTTR); assay: Leaf blotch of wheat (SEPTTR) whole-plant fungicidal test; assay type: in vivo; settings: Zymoseptoria tritici, topical, low volume (track spray) application, 121.5 g/H
[2] = test system: Cercospora beticola (CERCBE); assay: Leaf spot of sugar beets (CERCBE) whole-plant fungicidal test; assay type: in vivo; settings: sugar beet, 1 Day Protectant
Experimental: All fungicides were evaluated using the aforementioned method for their activity vs. all target diseases, unless stated otherwise. Wheat leaf blotch and brown rust activity were also evaluated using track spray applications, in which case the fungicides were formulated as EC formulations, containing 0.1% Trycol 5941 in the spray solutions. Wheat plants (variety Yuma) were grown from seed in a greenhouse in 50% mineral soil/50% soil-less Metro mix until the first leaf was fully emerged, with 7-10 seedlings per pot. These plants were inoculated with an aqueous spore suspension of Septoria tritici either prior to or after fungicide treatments. After inoculation the plants were kept in 100% relative humidity (one day in a dark dew chamber followed by two to three days in a lighted dew chamber at 20° C.) to permit spores to germinate and infect the leaf. The plants were then transferred to a greenhouse set at 20° C. for disease to develop. When disease symptoms were fully expressed on the 1st leaves of untreated plants, infection levels were assessed on a scale of 0 to 100 percent disease severity. Percent disease control was calculated using the ratio of disease severity on treated plants relative to untreated plants. Sugar beet plants (variety HH88) were grown in soil-less Metro mix and trimmed regularly to maintain a uniform plant size prior to test. […]

[3] = test system: Blumeria graminis f. sp. hordei; synonym: Erysiphe graminis f. sp. hordei (ERYSGH); assay: Barley powdery mildew (ERYSGH) whole-plant fungicidal test; assay type: in vivo; settings: 1 Day Protectant
Experimental: (§1) All fungicides were evaluated using the aforementioned method for their activity vs. all target diseases, unless stated otherwise. Wheat leaf blotch and brown rust activity were also evaluated using track spray applications, in which case the fungicides were formulated as EC formulations, containing 0.1% Trycol 5941 in the spray solutions. Wheat plants (variety Yuma) were grown from seed in a greenhouse in 50% mineral soil/50% soil-less Metro mix until the first leaf was fully emerged, with 7-10 seedlings per pot. These plants were inoculated with an aqueous spore suspension of Septoria tritici either prior to or after fungicide treatments. After inoculation the plants were kept in 100% relative humidity (one day in a dark dew chamber followed by two to three days in a lighted dew chamber at 20° C.) to permit spores to germinate and infect the leaf. The plants were then transferred to a greenhouse set at 20° C. for disease to develop. When disease symptoms were fully expressed on the 1st leaves of untreated plants, infection levels were assessed on a scale of 0 to 100 percent disease severity. Percent disease control was calculated using the ratio of disease severity on treated plants relative to untreated plants. Barley seedlings (variety Harrington) were propagated in soil-less Metro mix, with each pot having 8 to 12 plants, and used in the test when first leaf was fully emerged. […]

[4] = test system: Alternaria solani (ALTESO); assay: Tomato early blight (ALTESO) whole-plant fungicidal test; assay type: in vivo; settings: 1 Day Protectant
Experimental: as §1, with “Tomato plants” for “Barley seedlings”, “Outdoor Girl)” for “Harrington)”, “one plant,” for “8 to 12 plants,”, “used” for “used in the test”, “12 to 14 days old.” for “first leaf was fully emerged.”

[5] = test system: Phakopsora pachyrhizi (PHAKPA); assay: Asian soybean rust (PHAKPA) whole-plant fungicidal test

SMILES: CCCC[C@@H]1[C@@H](Cc2ccc(C(F)(F)F)cc2)CCC[C@H](NC(=O)c2nccc(OC)c2OCOC(C)=O)C(=O)O[C@H]1C [Compound 3]
- pest or weed control at 121.5 g/ha ([1]; 24 h, 1 Day Protectant, read-out: Low Volume activity at 121.5 g/H SEPTTR 1DP (% disease control rating)): > 70%
- pest or weed control at 121.5 g/ha ([1]; 72 h, 3 Day Curative, read-out: Low Volume activity at 121.5 g/H SEPTTR 3DC (% disease control rating)): > 70%
- Disease Control at 100 ppm CERCBE 1DP [2]: B (≦70)
- Disease Control at 100 ppm ERYSGH 1DP [3]: A (>70)
- Disease Control at 100 ppm ALTESO 1DP [4]: A (>70)
- Disease Control at 25 ppm PHAKPA 1DP ([5]; 1 Day Protectant): B (≦70)
- Disease Control at 25 ppm PHAKPA 3DC ([5]; 3 Day Curative): B (≦70)
